Where a name gives a salt, the structure may show the parent alone.

By EC50 is commonly meant the concentration needed to bring the measured effect to its halfway point. Low values mean an effect from little substance, high ones a need for much substance. The melting point is the temperature, or range, at which the solid turns liquid.

One series relates to rabbit saphenous vein. The experiment in a line: Rabbit saphenous vein contraction.
Conditions: not given
The protocol:
Bend the tips of two 30-gauge stainless steel hypodermic needles into an L-shape and slip them into the lumen of the polyethylene tubing. Gently push vein tissue from the cannula onto the needles. Separate the needles and attach the lower needle with thread to a stationary glass rod and the upper needle with thread to a force transducer (Statham UC-3). Mount the tissues in organ baths containing 10 mL of modified Krebs' solution. Maintain tissue bath solutions at 37° C. and […] […] Apply an initial optimum resting force of 4 grams to the vein tissue. Record isometric contractions as changes in grams of force on a Beckman Dynograph with Statham UC-3 transducers and microscale accessory attachments. […] Flush the bath, allow the tissue to re-equilibrate under a 4 gram force, add test compound and record the force of contraction. Add additional compound to achieve the next concentration in a range of compound concentrations to generate cumulative agonist concentration-response curves for each test compound. Tissues can be used to generate up to two agonist concentration-response curves. […] Two important parameters can be measured with this vasoconstriction assay, saphenous vein contraction (EC50) and maximal contraction as a percentage of the maximal KCl response (%max KCl).
For the compound `CNS(=O)(=O)Cc1ccc2[nH]cc(CCN(C)C)c2c1` [sumatriptan], the “corrected vasoconstriction EC50 (EC50 divided by %max KCl)” value came to 0.0103 µM.

Still in this series, the particulars now being: Oryctolagus cuniculus.
As for `CNS(=O)(=O)Cc1ccc2[nH]cc(CCN(C)C)c2c1` [sumatriptan], the EC50 came out at 0.66 µM.

Test system in another series: not given
Assay: not given
Conditions: not given
Compound `CN1CCC(N(C)c2cccc(NC(=O)c3ccco3)n2)CC1.Cl` (hydrate or solvate) came in with a melting point of 116 to 119 °C.

With `CN(c1cccc(NC(=O)c2ccc(F)cc2)n1)C1CCN(CC2CC2)CC1.Cl`, the melting point is 81.6 °C.

Consider `CN1CCC(Nc2cccc(NC(=O)c3ccc(F)cc3F)c2)CC1.Cl.Cl`, for which the melting point is 262 °C (dec.).

With `CN1CCC(N(C(=O)C2CC2)c2cccc(NC(=O)c3ccc(F)cc3Cl)c2)CC1.Cl`, the melting point was 133 to 136 °C.

As for `CN1CCC(N(C)c2cccc(NC(=O)c3ccccc3Cl)n2)CC1.Cl` (hydrate or solvate), the melting point lay in the range of 90 to 92 °C.

Compound `CN1CCC(Nc2cccc(NC(=O)c3ccc(F)cc3C(F)(F)F)n2)CC1.Cl` came in with a melting point of 84.9 °C.

On to `CN1CCC(N(C)c2cccc(NC(=O)c3ccc(F)cc3Cl)c2)CC1.Cl.Cl`, for which the melting point came to 172 °C.

For `Cl.Cl.O=C(Nc1cccc(NC2CCNCC2)c1)c1ccc(F)cc1Cl`, the melting point lay in the range of 255 to 257 °C.

As to `C[C@H]1C[C@@H](Nc2cccc(NC(=O)c3ccc(F)cc3Cl)c2)CCN1.Cl`, the melting point was 202 °C (dec.).

For the compound `CN1CCC(Nc2cccc(NC(=O)c3ccccc3Br)c2)CC1.Cl.Cl`, the melting point fell in the range of 192 to 193 °C.

As to `C[C@H]1C[C@@H](Nc2cccc(NC(=O)c3ccc(F)cc3Cl)c2)CCN1C.Cl`, the melting point lay within 91 to 94 °C.

For `CN1CCC(Nc2cccc(NC(=O)c3c(F)cc(F)cc3F)c2)CC1.Cl.Cl`, the melting point is 257 °C (dec.).

Regarding `CN1CCC(N(C)c2cccc(NC(=O)c3c(F)cccc3Cl)n2)CC1.Cl` (hydrate or solvate), the melting point is 283 to 286 °C.

As to `CN1CCC(N(C)c2cc(F)cc(NC(=O)c3sccc3Br)c2)CC1` (as salt: hydrochloric acid salt), the melting point was in the range of 175 to 180 °C.

`CN1CCC(N(C)c2cccc(NC(=O)c3ccc(F)cc3)c2)CC1.Cl` displayed a melting point of 76.1 °C.

In the case of `CC(C)n1cc(CCN2CCC(N(C)c3cccc(NC(=O)c4ccc(F)cc4Cl)n3)CC2)cn1.Cl`, the melting point is 96.7 °C.

The compound `CN(c1cccc(NC(=O)c2ccc(F)cc2)n1)C1CCNCC1.Cl` gave a melting point of 152.4 °C.

For `CN1CCC(Nc2cccc(NC(=O)c3c(F)cccc3F)c2)CC1.Cl.Cl`, the melting point is 198 °C (dec.).

Consider `CN1CCC(N(C)c2cccc(NC(=O)c3c(F)cccc3F)n2)CC1.Cl` (hydrate or solvate), for which the melting point was 308 °C (dec.).

Compound `CN1CCC(N(C)c2cccc(NC(=O)c3ccccc3C(F)(F)F)c2)CC1.Cl` gave a melting point of 84.5 °C.

Compound `CN(c1cccc(NC(=O)c2ccc(F)cc2Cl)n1)C1CCNCC1.Cl` gave a melting point of 152.1 °C.

For `CN1CCC(N(C)c2cccc(NC(=O)c3ccccc3OC(F)(F)F)n2)CC1.Cl` (hydrate or solvate), the melting point lay in the range of 102 to 104 °C.

Turning to `CCN1CCC(N(C)c2cccc(NC(=O)c3ccc(F)cc3)n2)CC1.Cl`, the melting point amounted to 75.6 °C.

Turning to `CN1CCC(N(C)c2cccc(NC(=O)c3ccc(F)cc3)n2)CC1.Cl` (hydrate or solvate), the melting point fell in the range of 250 to 252 °C.

The compound `CN1CCC(N(C)c2cccc(NC(=O)C3CC3)n2)CC1.Cl` (hydrate or solvate) returned a melting point of 258 to 260 °C.

Compound `CN1CCC(N(C)c2cccc(NC(=O)C3CCCCC3)n2)CC1.Cl` had a melting point of 250 to 252 °C.

Take `CN1CCC(Nc2cccc(NC(=O)c3ccccc3Cl)c2)CC1.Cl.Cl`: the melting point was in the range of 206 to 208 °C.

The compound `CN1CCC(N(C)c2cc(F)cc(NC(=O)c3ccccc3Cl)c2)CC1` (as salt: hydrochloric acid salt) (hydrate or solvate) came in with a melting point of 170 to 175 °C.

`CN1CCC(N(C)c2cccc(NC(=O)c3ccncc3)n2)CC1.Cl` (hydrate or solvate) showed a melting point of 274 to 277 °C.

Consider `CN1CCC(N(C)c2cccc(NC(=O)c3c(F)cc(F)cc3F)n2)CC1.Cl` (hydrate or solvate), for which the melting point is 302 °C (dec.).

Turning to `CCCN1CCC(N(C)c2cccc(NC(=O)c3ccc(F)cc3Cl)n2)CC1.Cl`, the melting point was 258 °C (dec.).

`CN1CCC(Nc2cccc(NC(=O)c3ccc(F)c(F)c3F)n2)CC1.Cl`: the melting point is 231.4 °C (dec.).

Regarding `CCC(=O)Nc1cccc(N(C)C2CCN(C)CC2)n1.Cl` (hydrate or solvate), the melting point lay in the range of 216 to 218 °C.

`CN1CCC(N(C)c2cccc(NC(=O)c3ccccc3Br)c2)CC1.Cl.Cl` yielded a melting point of 196 to 197 °C.

`CN1CCC(N(C)c2cccc(NC(=O)c3ccc(F)cc3Cl)n2)CC1.Cl` (hydrate or solvate) returned a melting point of 229 to 231 °C.

`CN1CCC(N(C)c2cccc(NC(=O)C3CCC3)n2)CC1.Cl` (hydrate or solvate) registered a melting point of 258 to 260 °C.

As to `CN1CCC(N(C)c2cccc(NC(=O)c3c(F)cc(F)cc3F)c2)CC1.Cl.Cl`, the melting point fell in the range of 199 to 200 °C.

Compound `CN1CCC(N(C)c2cccc(NC(=O)c3ccc(F)cc3C(F)(F)F)n2)CC1.Cl` (hydrate or solvate) came in with a melting point of 100 to 102 °C.

Regarding `CCN1CCC(N(C)c2cccc(NC(=O)c3ccc(F)cc3Cl)n2)CC1.Cl`, the melting point is 132.9 °C.

As to `C[C@@H]1C[C@H](Nc2cccc(NC(=O)c3ccc(F)cc3Cl)c2)CCN1.Cl`, the melting point was in the range of 182 to 185 °C.

`CC(C)n1cc(CCN2CCC(N(C)c3cccc(NC(=O)c4ccc(F)cc4)n3)CC2)cn1.Cl` gave a melting point of 85.8 °C.

In turn, `CN1CCC(N(C)c2cccc(NC(=O)c3c(F)cccc3Cl)c2)CC1.Cl.Cl` came in with a melting point of 214 to 217 °C.

For `CCCN1CCC(N(C)c2cccc(NC(=O)c3ccc(F)cc3)n2)CC1.Cl`, the melting point was 84.7 °C.

The compound `CN1CCC(N(C)c2cccc(NC(=O)c3ccc(F)cc3F)c2)CC1.Cl.Cl` came in with a melting point of 165 to 168 °C.

On to `CN1CCC(Nc2cccc(NC(=O)c3ccccc3OC(F)(F)F)c2)CC1.Cl.Cl`, for which the melting point fell in the range of 159 to 162 °C.

With `CN1CCC(Nc2cccc(NC(=O)c3c(F)cccc3Cl)c2)CC1.Cl.Cl`, the melting point lay in the range of 192 to 194 °C.

As for `CN(c1cccc(NC(=O)c2ccc(F)cc2Cl)n1)C1CCN(CC2CC2)CC1.Cl`, the melting point was 257.5 °C.

Take `CN1CCC(N(C)c2cc(F)cc(NC(=O)c3ccc(F)cc3)c2)CC1` (as salt: hydrochloric acid salt): the melting point worked out at 175 °C.

As to `CN1CCC(Nc2cccc(NC(=O)c3ccc(F)cc3Cl)c2)CC1.Cl.Cl`, the melting point came to 180 °C.

With `CN1CCC(N(C)c2cc(F)cc(NC(=O)c3ccc(F)cc3F)c2)CC1` (as salt: hydrochloric acid salt), the melting point came to 175 °C.

Compound `CN1CCC(N(C)c2cccc(NC(=O)c3cccs3)n2)CC1.Cl` displayed a melting point of 126 to 128 °C.

In the case of `CN1CCC(N(C)c2cccc(NC(=O)c3c(Cl)cccc3Cl)c2)CC1.Cl`, the melting point is 164.2 °C.

In turn, `C[C@@H]1C[C@H](Nc2cccc(NC(=O)c3ccc(F)cc3Cl)c2)CCN1C.Cl` showed a melting point of 159 to 162 °C.

With `Cc1ccccc1C(=O)Nc1cccc(N(C)C2CCN(C)CC2)c1.Cl`, the melting point was found to be 82.4 °C.

The values are drawn from patent US7803813B2, “Substituted 2-carbonylamino-6-piperidinaminopyridines and substituted 1-carbonylamino-3-piperidinaminobenzenes as 5-HT1F agonists” (Eli Lilly and Company, priority 2003, dated 2010).
